Results from patent US20250230165A1, “HETEROCYCLIC COMPOUNDS FOR USE IN THE TREATMENT OF CANCER” (ARTIOS PHARMA LIMITED, priority 2021, published 2025).

The compounds below were run against T1, Human Polθ polymerase domain (aa1820-2590) (Homo sapiens, UniProt O75417) (assay: Polθ Polymerase Domain Kinact/KI Assay (PicoGreen)). Details: 0.8 nM Polθ, 100 nM DNA substrate, kobs vs [I] fit for 2-step covalent inhibitor.
T1 construct: Human Polθ polymerase domain (aa1820-2590) was expressed in E. coli; made in house; host or cells: E. coli
T1 sequence (O75417 1820-2590): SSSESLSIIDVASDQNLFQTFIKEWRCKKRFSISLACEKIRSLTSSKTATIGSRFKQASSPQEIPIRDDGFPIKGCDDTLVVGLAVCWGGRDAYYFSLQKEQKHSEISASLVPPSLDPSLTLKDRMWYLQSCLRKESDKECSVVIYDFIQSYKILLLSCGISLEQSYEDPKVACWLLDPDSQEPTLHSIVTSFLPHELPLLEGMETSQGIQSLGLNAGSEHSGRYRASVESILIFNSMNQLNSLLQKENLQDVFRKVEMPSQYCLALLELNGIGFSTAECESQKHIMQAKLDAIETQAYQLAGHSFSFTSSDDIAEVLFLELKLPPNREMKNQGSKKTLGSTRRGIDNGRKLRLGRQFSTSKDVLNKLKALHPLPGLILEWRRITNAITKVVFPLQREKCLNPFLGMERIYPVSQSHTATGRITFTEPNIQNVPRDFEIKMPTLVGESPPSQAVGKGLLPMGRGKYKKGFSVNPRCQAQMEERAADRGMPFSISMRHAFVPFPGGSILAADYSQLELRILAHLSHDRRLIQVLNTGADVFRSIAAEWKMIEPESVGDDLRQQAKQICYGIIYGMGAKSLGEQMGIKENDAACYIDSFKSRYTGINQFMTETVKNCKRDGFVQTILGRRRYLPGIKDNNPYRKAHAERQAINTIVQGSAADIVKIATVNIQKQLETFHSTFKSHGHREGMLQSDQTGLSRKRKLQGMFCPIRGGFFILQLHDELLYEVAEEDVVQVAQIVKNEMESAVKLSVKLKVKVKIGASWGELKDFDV
Type: biochemical
In short: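 Covalent inhibitors were tested against E. coli-expressed enzyme (0.8 nM final) with 100 nM annealed DNA substrate and […] in Tris pH 7.5 buffer, 1% DMSO. Reactions were EDTA-quenched over a 0–60 min time course and product DNA detected by PicoGreen fluorescence.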

Row | SMILES | Kinact/Kl [M⁻¹ s⁻¹]
1 | C=CC(=O)N1CC(N2CCC(CCN3C[C@H]4CC(=O)N(c5cc(C(F)(F)F)cc(C)n5)[C@@H]4C(=O)N(C)c4cccc(F)c43)CC2)C1 [Example 215, (3aR,11aS)-5-(2-(1-(1-acryloylazetidin-3-yl)piperidin-4-yl)ethyl)-6-fluoro-10-methyl-1-(6-methyl-4-(trifluoromethyl)pyridin-2-yl)-1,3a,4,5,10,11a-hexahydro-2H-benzo[b]pyrrolo [2,3-f][1,4] diazocine-2,11 (3H)-dione] | 1.21e+06
2 | C=CC(=O)N1CC(N2CCN(CCN3C[C@H]4CC(=O)N(c5cc(C(F)(F)F)cc(C)n5)[C@@H]4C(=O)N(C)c4c(F)c(F)cc(Cl)c43)CC2)C1 [Example 20, (3aR,11aS)-5-(2-(4-(1-acryloylazetidin-3-yl)piperazin-1-yl)ethyl)-6-chloro-8,9-difluoro-10-methyl-1-(6-methyl-4-(trifluoromethyl)pyridin-2-yl)-1,3a,4,5,10,11a-hexahydro-2H-benzo[b]pyrrolo[2,3-f][1,4]diazocine-2,11(3H)-dione] | 1.12e+06
3 | Cc1cc(C(F)(F)F)cc(N2C(=O)C[C@@H]3CN(Cc4ccc5c(c4)OCCN5C(=O)/C=C/CN(C)C)c4c(Cl)cccc4N(C)C(=O)[C@H]32)n1 [Example 308, (3aR,11aS)-6-chloro-5-((4-((E)-4-(dimethylamino)but-2-enoyl)-3,4-dihydro-2H-benzo[b][1,4]oxazin-7-yl)methyl)-10-methyl-1-(6-methyl-4-(trifluoromethyl)pyridin-2-yl)-1,3a,4,5,10,11a-hexahydro-2H-benzo[b]pyrrolo[2,3-f][1,4]diazocine-2,11(3H)-dione] | 280000
4 | C=CC(=O)N1CC(N2CCN(CCN3C[C@H]4CC(=O)N(c5cc(C(F)(F)F)cc(C)n5)[C@@H]4C(=O)N(C)c4cc(F)cc(C5CC5)c43)CC2)C1 [Example 19, (3aR,11aS)-5-(2-(4-(1-acryloylazetidin-3-yl)piperazin-1-yl)ethyl)-6-cyclopropyl-8-fluoro-10-methyl-1-(6-methyl-4-(trifluoromethyl)pyridin-2-yl)-1,3a,4,5,10,11a-hexahydro-2H-benzo[b]pyrrolo[2,3-f][1,4]diazocine-2,11(3H)-dione] | 350000
5 | C=CC(=O)N1CC2(CN(CCN3C[C@H]4CC(=O)N(c5cc(C(F)(F)F)cc(C)n5)[C@@H]4C(=O)N(C)c4cccc(F)c43)C[C@H](C)N2)C1 [Example 32, (3aR,11aS)-5-(2-((S)-2-acryloyl-6-methyl-2,5,8-triazaspiro[3.5]nonan-8-yl)ethyl)-6-fluoro-10-methyl-1-(6-methyl-4-(trifluoromethyl)pyridin-2-yl)-1,3a,4,5,10,11a-hexahydro-2H-benzo[b] pyrrolo[2,3-f][1,4] diazocine-2,11(3H)-dione] | 420000
6 | C=CC(=O)N1CCC[C@@H]1c1noc(CN2C[C@H]3CC(=O)N(c4cc(C(F)(F)F)cc(C)n4)[C@@H]3C(=O)N(C)c3cccc(C)c32)n1 [Example 268, (3aR,11aS)-5-((3-((R)-1-acryloylpyrrolidin-2-yl)-1,2,4-oxadiazol-5-yl)methyl)-6,10-dimethyl-1-(6-methyl-4-(trifluoromethyl)pyridin-2-yl)-1,3a,4,5,10,11a-hexahydro-2H-bez[b]pyrrolo[2,3-f][1,4]diazocine-2,11(3H)-dione] | 410000
7 | C=CC(=O)Nc1cnc(CN2C[C@H]3CC(=O)N(c4cc(C(F)(F)F)cc(C)n4)[C@@H]3C(=O)N(C)c3cccc(Cl)c32)nc1 [Example 284, N-(2-(((3aR,11aS)-6-chloro-10-methyl-1-(6-methyl-4-(trifluoromethyl)pyridin-2-yl)-2,11-dioxo-1,2,3,3a,4,10,11,11a-octahydro-5H-benzo[b]pyrrolo[2,3-f][1,4]diazocin-5-yl)methyl)pyrimidin-5-yl)acrylamide] | 770000
8 | C=CC(=O)N1CC(N2CC[C@@H](CN3C[C@H]4CC(=O)N(c5cc(C(F)(F)F)cc(C)n5)[C@@H]4C(=O)N(C)c4cccc(C)c43)C2)C1 [Example 224, (3aR,11aS)-5-(((R)-1-(1-acryloylazetidin-3-yl)pyrrolidin-3-yl)methyl)-6,10-dimethyl-1-(6-methyl-4-(trifluoromethyl)pyridin-2-yl)-1,3a,4,5,10,11a-hexahydro-2H-benzo[b]pyrrolo [2,3-f][1,4] diazocine-2,11(3H)-dione] | 4.21e+06
9 | C=CC(=O)Nc1ccc(CN2C[C@H]3CC(=O)N(c4cc(C(F)(F)F)cc(C)n4)[C@@H]3C(=O)N(C)c3cccc(C)c32)cc1OC [Example 90, N-(4-(((3aR,11aS)-6,10-dimethyl-1-(6-methyl-4-(trifluoromethyl)pyridin-2-yl)-2,11-dioxo-1,2,3,3a,4,10,11,11a-octahydro-5H-benzo[b]pyrrolo[2,3-f][1,4]diazocin-5-yl)methyl)-2-methoxyphenyl)acrylamide] | 2.09e+06
10 | C=CC(=O)N1CC2(C1)N[C@H](C)CN(CCN1C[C@H]3CC(=O)N(c4cc(C(F)(F)F)cc(C)n4)[C@@H]3C(=O)N(C)c3cccc(F)c31)C2C (mixture of isomers) [Example 37b, (3aR,11aS)-5-(2-((6R,9R/S)-2-acryloyl-6,9-dimethyl-2,5,8-triazaspiro[3.5]nonan-8-yl)ethyl)-6-fluoro-10-methyl-1-(6-methyl-4-(trifluoromethyl)pyridin-2-yl)-1,3a,4,5,10,11a-hexahydro-2H-benzo[b]pyrrolo[2,3-f][1,4]diazocine-2,11(3H)-dione] | 580000
11 | C=CC(=O)N1CC(N(C)CC(O)CN2C[C@H]3CC(=O)N(c4cc(C(F)(F)F)cc(C)n4)[C@@H]3C(=O)N(C)c3cccc(Cl)c32)C1 (single isomer, unassigned) [Example 69] | 1.09e+06
12 | C=CC(=O)N1CC(N2CC[C@H](CN3C[C@H]4CC(=O)N(c5cc(C(F)(F)F)cc(C)n5)[C@@H]4C(=O)N(C)c4cccc(C)c43)C2)C1 [Example 223, (3aR,11aS)-5-(((S)-1-(1-acryloylazetidin-3-yl)pyrrolidin-3-yl)methyl)-6,10-dimethyl-1-(6-methyl-4-(trifluoromethyl)pyridin-2-yl)-1,3a,4,5,10,11a-hexahydro-2H-benzo[b]pyrrolo [2,3-f][1,4] diazocine-2,11(3H)-dione] | 1.62e+06

The remaining lines, values ahead:

Row | Kinact/Kl [M⁻¹ s⁻¹] | SMILES
13 | 1.46e+06 | Cc1cc(C(F)(F)F)cc(N2C(=O)C[C@@H]3CN(Cc4ccc5c(c4)CN(C(=O)/C=C/CN(C)C)C5CC#N)c4c(Cl)cccc4N(C)C(=O)[C@H]32)n1 (single isomer, unassigned) [Example 310b]
14 | 2.5e+06 | C=CC(=O)N1CCC(N2CCC(CN3C[C@H]4CC(=O)N(c5cc(C(F)(F)F)cc(C)n5)[C@@H]4C(=O)N(C)c4cccc(C)c43)CC2)C1 (mixture of isomers) [Example 95b, (3aR,11aS)-5-((1-((R/S)-1-acryloylpyrrolidin-3-yl)piperidin-4-yl)methyl)-6,10-dimethyl-1-(6-methyl-4-(trifluoromethyl)pyridin-2-yl)-1,3a,4,5,10,11a-hexahydro-2H-benzo[b]pyrrolo[2,3-f][1,4]diazocine-2,11(3H)-dione]
15 | 930000 | C=CC(=O)N1Cc2cc(CN3C[C@H]4CC(=O)N(c5cc(C(F)(F)F)cc(C)n5)[C@@H]4C(=O)N(C)c4cccc(Cl)c43)ccc2[C@@H]1CC#N (racemic) [Example 287a, 2-((S/R)-2-acryloyl-5-(((3aR,11aS)-6-chloro-10-methyl-1-(6-methyl-4-(trifluoromethyl)pyridin-2-yl)-2,11-dioxo-1,2,3,3a,4,10,11,11a-octahydro-5H-benzo[b]pyrrolo[2,3-f][1,4]diazocin-5-yl)methyl)isoindolin-1-yl)acetonitrile]
16 | 1.26e+06 | C=CC(=O)N1Cc2ccc(CN3C[C@H]4CC(=O)N(c5cc(C(F)(F)F)cc(C)n5)[C@@H]4C(=O)N(C)c4cccc(Cl)c43)nc2C1CC#N (single isomer, unassigned) [Example 289a]
17 | 3.5e+06 | C=CC(=O)N1CC2(CN(CCN3C[C@H]4CC(=O)N(c5cc(C(F)(F)F)cc(C)n5)[C@@H]4C(=O)N(C)c4cccc(Cl)c43)C[C@H]2C#N)C1 (racemic) [Example 117b, (S/R)-2-acryloyl-6-(2-((3aR,11aS)-6-chloro-10-methyl-1-(6-methyl-4-(trifluoromethyl)pyridin-2-yl)-2,11-dioxo-1,2,3,3a,4,10,11,11a-octahydro-5H-benzo[b]pyrrolo[2,3-f][1,4]diazocin-5-yl)ethyl)-2,6-diazaspiro[3.4]octane-8-carbonitrile]
18 | 870000 | C=CC(=O)N1C[C@@H](F)[C@H](n2cc(CN3C[C@H]4CC(=O)N(c5cc(C(F)(F)F)cc(C)n5)[C@@H]4C(=O)N(C)c4cccc(C)c43)cn2)C1 (single isomer, unassigned) [Example 325b]
